The results in this text go back to patent publication US20160046618A1, “Cyclopropyl Fused Thiazin-2-Amine Compounds as Beta-Secretase Inhibitors and Methods of Use” (AMGEN INC., priority 2014, published 2016).

One assay has as its target human recombinant BACE2 (Homo sapiens (Human), UniProt Q9Y5Z0). Description: In vitro enzymatic BACE2 FRET assay. The class given is biochemical. Particulars: read-out: IC50 IP (μM) BACE2 enzyme. The procedure, abridged: (§1)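 FRET cleavage assay using Ni-NTA-purified recombinant protease and 50 nM quenched peptide substrate, 1 h. Stopped by neutralising with Tris; fluorescence at 488/590 nm.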

The next assay deals with human recombinant BACE1 (Homo sapiens (Human), UniProt P56817). Description: In vitro enzymatic BACE1 FRET assay. Particulars: read-out: IC50 IP (μM) BACE1 enzyme. Format: biochemical. The procedure, abridged:
as §1

The target of a further assay is Recombinant Cat D (Homo sapiens (Human), UniProt P07339). Description: In vitro enzymatic Cathepsin D (Cat D) FRET assay. The class given is biochemical. Particulars: read-out: IC50 IP (μM) CatD. Put shortly: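 Cleavage of a 20 nM FRET peptide by CHO-derived Cat D over 1 h at pH 3.5 (citrate buffer with CHAPS, 10% DMSO final). Endpoint fluorescence is read after Tris quench.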

Assay [1] concerns Aβ40 in conditioned medium of cells stably expressing Amyloid Precursor Protein (APP). Nature of the assay: In vitro BACE-1 cell-based assay (Aβ40 sandwich ELISA). The settings on record: read-out: IC50 IP (μM) BACE1 cell. The procedure, abridged:
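APP-stable cells, pre-cultured 24 h at 37° C in DMEM/10% FBS, were treated 24 h with compound in a 10-point series starting at 100 μM or 10 μM (0.1% DMSO final). Secreted Aβ40 in conditioned medium was measured by pAb40/biotin-6E10 sandwich ELISA with Europium time-resolved fluorescence; IC50 from percent inhibition versus concentration.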

Bounds are passed on as bounds.

Recombinant Cat D, sequence (P07339 65-412): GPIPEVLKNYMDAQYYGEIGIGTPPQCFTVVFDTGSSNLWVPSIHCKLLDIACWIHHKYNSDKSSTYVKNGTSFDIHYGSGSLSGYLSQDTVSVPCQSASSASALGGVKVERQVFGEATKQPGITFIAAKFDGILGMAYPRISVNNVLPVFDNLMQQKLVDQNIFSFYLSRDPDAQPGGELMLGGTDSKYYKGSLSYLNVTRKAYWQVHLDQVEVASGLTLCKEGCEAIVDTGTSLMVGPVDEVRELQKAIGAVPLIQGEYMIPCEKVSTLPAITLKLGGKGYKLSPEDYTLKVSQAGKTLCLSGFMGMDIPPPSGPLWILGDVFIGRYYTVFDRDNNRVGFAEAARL
human recombinant BACE1, sequence (P56817 46-501): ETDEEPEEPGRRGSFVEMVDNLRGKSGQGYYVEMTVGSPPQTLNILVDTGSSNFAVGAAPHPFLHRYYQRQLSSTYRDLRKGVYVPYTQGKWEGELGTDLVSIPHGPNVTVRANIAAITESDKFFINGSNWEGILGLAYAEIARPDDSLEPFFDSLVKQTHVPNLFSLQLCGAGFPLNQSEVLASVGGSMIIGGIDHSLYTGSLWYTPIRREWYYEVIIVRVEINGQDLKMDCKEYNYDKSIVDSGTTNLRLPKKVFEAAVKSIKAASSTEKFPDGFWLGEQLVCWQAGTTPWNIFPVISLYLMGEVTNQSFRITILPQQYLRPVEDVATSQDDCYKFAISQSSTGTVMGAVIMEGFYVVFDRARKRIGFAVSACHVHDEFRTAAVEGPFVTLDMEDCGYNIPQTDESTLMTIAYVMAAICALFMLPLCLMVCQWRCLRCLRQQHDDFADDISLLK
human recombinant BACE2, sequence (Q9Y5Z0 63-518): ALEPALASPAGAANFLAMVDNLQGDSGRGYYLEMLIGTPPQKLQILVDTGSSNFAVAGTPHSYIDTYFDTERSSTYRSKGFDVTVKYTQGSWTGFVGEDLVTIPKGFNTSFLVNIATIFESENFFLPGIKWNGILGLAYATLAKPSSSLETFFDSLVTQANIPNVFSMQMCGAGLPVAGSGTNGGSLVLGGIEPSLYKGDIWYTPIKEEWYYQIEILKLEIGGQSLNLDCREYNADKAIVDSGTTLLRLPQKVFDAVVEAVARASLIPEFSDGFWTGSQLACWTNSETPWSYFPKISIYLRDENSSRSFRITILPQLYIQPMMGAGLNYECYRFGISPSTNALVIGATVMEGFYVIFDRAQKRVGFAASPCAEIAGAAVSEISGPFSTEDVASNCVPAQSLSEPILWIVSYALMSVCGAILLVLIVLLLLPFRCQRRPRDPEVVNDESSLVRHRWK

Take `Cc1nc(OCc2ncco2)cnc1C(=O)Nc1cc(F)c(F)c([C@@]2(C)N=C(N)S[C@@]3(C(F)F)C[C@@H]23)c1` [Example 860, N-(3-((1S,5S,6S)-3-amino-1-(difluoromethyl)-5-methyl-2-thia-4-azabicyclo[4.1.0]hept-3-en-5-yl)-4,5-difluorophenyl)-3-methyl-5-(1,3-oxazol-2-ylmethoxy)-2-pyrazinecarboxamide]: the IC50 at human recombinant BACE2 was 0.0286 µM; on human recombinant BACE1, 0.00276 µM; on Recombinant Cat D, 1010 µM; in assay [1] it was 0.00853 µM.

On to `C#CCOc1cnc(C(=O)Nc2cc(F)c(F)c([C@@]3(C)N=C(N)S[C@@]4(C(F)F)C[C@@H]34)c2)c(C)n1` [Example 861, N-(3-((1S,5S,6S)-3-amino-1-(difluoromethyl)-5-methyl-2-thia-4-azabicyclo[4.1.0]hept-3-en-5-yl)-4,5-difluorophenyl)-3-methyl-5-(2-propyn-1-yloxy)-2-pyrazinecarboxamide], for which the IC50 at human recombinant BACE2 is 0.0176 µM; on human recombinant BACE1, 0.000889 µM; at Recombinant Cat D, 146 µM; in assay [1], 0.00754 µM.

As to `C#CCOc1cnc(C(=O)Nc2cc(F)c(F)c([C@@]3(C)N=C(N)S[C@@]4(COC)C[C@H]43)c2)c(C)n1` [Example 862, N-(3-((1S,5S,6S)-3-amino-1-(methoxymethyl)-5-methyl-2-thia-4-azabicyclo[4.1.0]hept-3-en-5-yl)-4,5-difluorophenyl)-3-methyl-5-(2-propyn-1-yloxy)-2-pyrazinecarboxamide], the IC50 at human recombinant BACE2 was 0.017 µM; at human recombinant BACE1, 0.000598 µM; at Recombinant Cat D, 129 µM; in assay [1], 0.0072 µM.

On to `COC[C@]12C[C@H]1[C@@](C)(c1cc(NC(=O)c3ncc(OCc4ncco4)nc3C)cc(F)c1F)N=C(N)S2` [Example 863, N-(3-((1S,5S,6S)-3-amino-1-(methoxymethyl)-5-methyl-2-thia-4-azabicyclo[4.1.0]hept-3-en-5-yl)-4,5-difluorophenyl)-3-methyl-5-(1,3-oxazol-2-ylmethoxy)-2-pyrazinecarboxamide], for which the IC50 on human recombinant BACE2 was 0.0249 µM; at human recombinant BACE1, 0.00228 µM; on Recombinant Cat D, 467 µM; in assay [1], 0.00635 µM.

For `COC[C@]12C[C@H]1[C@@](C)(c1cc(NC(=O)c3ncc(O[C@@H](C)c4ncco4)nc3C)cc(F)c1F)N=C(N)S2` [Example 864, N-(3-((1S,5S,6S)-3-amino-1-(methoxymethyl)-5-methyl-2-thia-4-azabicyclo[4.1.0]hept-3-en-5-yl)-4,5-difluorophenyl)-3-methyl-5-((1S)-1-(1,3-oxazol-2-yl)ethoxy)-2-pyrazinecarboxamide], the IC50 came to 0.652 µM on human recombinant BACE2, 0.0609 µM on human recombinant BACE1, 621 µM on Recombinant Cat D and 0.172 µM in assay [1].

Turning to `CC#CCOc1cnc2c(Nc3ccc(F)c([C@@]4(CF)N=C(N)S[C@@]5(CF)C[C@H]54)c3)nccc2n1` [Example 865, N-(3-((1S,5S,6S)-3-amino-1,5-bis(fluoromethyl)-2-thia-4-azabicyclo[4.1.0]hept-3-en-5-yl)-4-fluorophenyl)-2-(2-butyn-1-yloxy)pyrido[3,4-b]pyrazin-5-amine], the IC50 on human recombinant BACE2 is 0.0123 µM; on human recombinant BACE1, 0.000236 µM; on Recombinant Cat D, 325 µM; in assay [1] it was 0.00301 µM.

As to `C[C@]1(c2cc(Nc3nccc4nc(OCc5ncco5)cnc34)cc(F)c2F)N=C(N)S[C@@]2(C(F)F)C[C@@H]12` [Example 866, N-(3-((1S,5S,6S)-3-amino-1-(difluoromethyl)-5-methyl-2-thia-4-azabicyclo[4.1.0]hept-3-en-5-yl)-4,5-difluorophenyl)-2-(1,3-oxazol-2-ylmethoxy)pyrido[3,4-b]pyrazin-5-amine], the IC50 at human recombinant BACE2 was 0.0285 µM; at human recombinant BACE1 it was 0.000941 µM; at Recombinant Cat D it was > 400 µM; in assay [1] it was 0.0115 µM.

Consider `C[C@]1(c2cc(Nc3nccc4nc(OCc5cocn5)cnc34)cc(F)c2F)N=C(N)S[C@@]2(C(F)F)C[C@@H]12` [Example 867, N-(3-((1S,5S,6S)-3-amino-1-(difluoromethyl)-5-methyl-2-thia-4-azabicyclo[4.1.0]hept-3-en-5-yl)-4,5-difluorophenyl)-2-(1,3-oxazol-4-ylmethoxy)pyrido[3,4-b]pyrazin-5-amine], for which the IC50 on human recombinant BACE2 was 0.0549 µM; on human recombinant BACE1, 0.00171 µM; at Recombinant Cat D, 299 µM; in assay [1] it was 0.011 µM.

As to `CC#CCOc1cnc2c(Nc3cc(F)c(F)c([C@@]4(C)N=C(N)S[C@@]5(C(F)F)C[C@@H]45)c3)nccc2n1` [Example 868, N-(3-((1S,5S,6S)-3-amino-1-(difluoromethyl)-5-methyl-2-thia-4-azabicyclo[4.1.0]hept-3-en-5-yl)-4,5-difluorophenyl)-2-(2-butyn-1-yloxy)pyrido[3,4-b]pyrazin-5-amine], the IC50 on human recombinant BACE2 was 0.0211 µM; at human recombinant BACE1, 0.000671 µM; at Recombinant Cat D, > 400 µM; in assay [1], 0.0147 µM.

With `CC#CCOc1cnc2c(Nc3cc(F)c(F)c([C@@]4(C)N=C(N)S[C@@]5(COC)C[C@H]54)c3)nccc2n1` [Example 869, N-(3-((1S,5S,6S)-3-amino-1-(methoxymethyl)-5-methyl-2-thia-4-azabicyclo[4.1.0]hept-3-en-5-yl)-4,5-difluorophenyl)-2-(2-butyn-1-yloxy)pyrido[3,4-b]pyrazin-5-amine], the IC50 on human recombinant BACE2 worked out at 0.0173 µM; at human recombinant BACE1, 0.000725 µM; on Recombinant Cat D, 127 µM; in assay [1], 0.00155 µM.

As to `Cc1nc(COc2cnc3c(Nc4cc(F)c(F)c([C@@]5(C)N=C(N)S[C@@]6(C(F)F)C[C@@H]56)c4)nccc3n2)co1` [Example 870, N-(3-((1S,5S,6S)-3-amino-1-(difluoromethyl)-5-methyl-2-thia-4-azabicyclo[4.1.0]hept-3-en-5-yl)-4,5-difluorophenyl)-2-((2-methyl-1,3-oxazol-4-yl)methoxy)pyrido[3,4-b]pyrazin-5-amine], the IC50 came to 0.0326 µM on human recombinant BACE2, 0.00156 µM on human recombinant BACE1, 91.3 µM on Recombinant Cat D and 0.02 µM in assay [1].

With `C[C@]1(c2cc(Nc3nccc4nc(OCCCF)cnc34)cc(F)c2F)N=C(N)S[C@@]2(C(F)F)C[C@@H]12` [Example 871, N-(3-((1S,5S,6S)-3-amino-1-(difluoromethyl)-5-methyl-2-thia-4-azabicyclo[4.1.0]hept-3-en-5-yl)-4,5-difluorophenyl)-2-(3-fluoropropoxy)pyrido[3,4-b]pyrazin-5-amine], the IC50 at human recombinant BACE2 was 0.517 µM; at human recombinant BACE1, 0.0183 µM; at Recombinant Cat D it was 352 µM; in assay [1] it was 1.17 µM.

Consider `CC(F)(F)COc1cnc2c(Nc3cc(F)c(F)c([C@@]4(C)N=C(N)S[C@@]5(C(F)F)C[C@@H]45)c3)nccc2n1` [Example 872, N-(3-((1S,5S,6S)-3-amino-1-(difluoromethyl)-5-methyl-2-thia-4-azabicyclo[4.1.0]hept-3-en-5-yl)-4,5-difluorophenyl)-2-(2,2-difluoropropoxy)pyrido[3,4-b]pyrazin-5-amine], for which the IC50 is 0.441 µM on human recombinant BACE2, 0.0193 µM at human recombinant BACE1, 239 µM at Recombinant Cat D and 2.66 µM in assay [1].

`C[C@]1(c2cc(Nc3nccc4nc(OCc5ncccc5F)cnc34)cc(F)c2F)N=C(N)S[C@@]2(C(F)F)C[C@@H]12` [Example 873, N-(3-((1S,5S,6S)-3-amino-1-(difluoromethyl)-5-methyl-2-thia-4-azabicyclo[4.1.0]hept-3-en-5-yl)-4,5-difluorophenyl)-2-((3-fluoro-2-pyridinyl)methoxy)pyrido[3,4-b]pyrazin-5-amine]: the IC50 at human recombinant BACE2 amounted to 0.0358 µM; on human recombinant BACE1, 0.00175 µM; at Recombinant Cat D, 95.1 µM; in assay [1] it was 0.287 µM.

As to `Cc1ccnc(COc2cnc3c(Nc4cc(F)c(F)c([C@@]5(C)N=C(N)S[C@@]6(C(F)F)C[C@@H]56)c4)nccc3n2)n1` [Example 874, N-(3-((1S,5S,6S)-3-amino-1-(difluoromethyl)-5-methyl-2-thia-4-azabicyclo[4.1.0]hept-3-en-5-yl)-4,5-difluorophenyl)-2-((4-methyl-2-pyrimidinyl)methoxy)pyrido[3,4-b]pyrazin-5-amine], the IC50 at human recombinant BACE2 is 0.0755 µM; at human recombinant BACE1, 0.00361 µM; on Recombinant Cat D, 956 µM; in assay [1], 0.0245 µM.

With `C[C@]1(c2cc(Nc3nccc4nc(OCc5cscn5)cnc34)cc(F)c2F)N=C(N)S[C@@]2(C(F)F)C[C@@H]12` [Example 875, N-(3-((1S,5S,6S)-3-amino-1-(difluoromethyl)-5-methyl-2-thia-4-azabicyclo[4.1.0]hept-3-en-5-yl)-4,5-difluorophenyl)-2-(1,3-thiazol-4-ylmethoxy)pyrido[3,4-b]pyrazin-5-amine], the IC50 came to 0.0352 µM at human recombinant BACE2, 0.00296 µM at human recombinant BACE1, 295 µM on Recombinant Cat D and 0.0272 µM in assay [1].

For orientation: IC50 means the point on the concentration scale where inhibition reaches its midpoint.
